From ChEMBL document CHEMBL5291721, “A preclinical secondary pharmacology resource illuminates target-adverse drug reaction associations of marketed drugs” (Nat Commun, 2023)

Legend:
[1] = target: T1, Muscarinic acetylcholine receptor M1 (Homo sapiens, UniProt P11229); format: functional
T1 sequence (P11229 whole entry): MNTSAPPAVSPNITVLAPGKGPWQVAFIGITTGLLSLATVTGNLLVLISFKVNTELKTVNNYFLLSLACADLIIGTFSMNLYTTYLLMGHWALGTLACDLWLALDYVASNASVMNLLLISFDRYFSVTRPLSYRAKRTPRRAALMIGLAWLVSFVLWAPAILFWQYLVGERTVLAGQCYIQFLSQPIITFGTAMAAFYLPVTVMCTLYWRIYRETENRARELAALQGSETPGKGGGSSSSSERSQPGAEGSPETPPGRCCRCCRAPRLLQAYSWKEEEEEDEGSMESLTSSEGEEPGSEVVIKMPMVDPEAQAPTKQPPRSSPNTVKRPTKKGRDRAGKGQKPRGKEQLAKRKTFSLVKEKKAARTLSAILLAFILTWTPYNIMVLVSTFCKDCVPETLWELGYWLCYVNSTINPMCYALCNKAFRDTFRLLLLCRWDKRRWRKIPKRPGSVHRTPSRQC

[2] = target: T2, Adenosine receptor A3 (Homo sapiens, UniProt P0DMS8)
T2 sequence (P0DMS8 whole entry): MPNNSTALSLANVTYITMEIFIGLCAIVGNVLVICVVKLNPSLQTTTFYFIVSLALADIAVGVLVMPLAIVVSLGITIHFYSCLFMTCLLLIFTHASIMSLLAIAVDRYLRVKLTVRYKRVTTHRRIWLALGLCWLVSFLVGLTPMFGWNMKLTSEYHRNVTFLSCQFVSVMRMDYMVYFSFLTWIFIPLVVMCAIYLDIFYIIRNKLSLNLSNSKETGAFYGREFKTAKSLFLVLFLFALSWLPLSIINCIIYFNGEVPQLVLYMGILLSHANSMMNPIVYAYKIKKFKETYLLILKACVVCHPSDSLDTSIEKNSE

[3] = target: T3, Type-1 angiotensin II receptor (Homo sapiens, UniProt P30556)
T3 sequence (P30556 whole entry): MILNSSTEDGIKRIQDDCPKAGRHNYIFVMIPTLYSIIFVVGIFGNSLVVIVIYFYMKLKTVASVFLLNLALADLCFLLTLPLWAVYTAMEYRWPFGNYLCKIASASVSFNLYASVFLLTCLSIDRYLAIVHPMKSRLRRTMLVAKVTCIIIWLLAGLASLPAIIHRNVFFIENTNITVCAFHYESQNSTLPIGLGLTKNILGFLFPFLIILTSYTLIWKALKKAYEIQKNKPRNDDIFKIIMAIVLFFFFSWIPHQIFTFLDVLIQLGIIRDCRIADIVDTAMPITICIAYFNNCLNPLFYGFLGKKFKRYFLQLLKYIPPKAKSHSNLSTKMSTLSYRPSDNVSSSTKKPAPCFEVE

[4] = target: Mu-type opioid receptor (Homo sapiens, UniProt P35372)
Mu-type opioid receptor, sequence (P35372 whole entry): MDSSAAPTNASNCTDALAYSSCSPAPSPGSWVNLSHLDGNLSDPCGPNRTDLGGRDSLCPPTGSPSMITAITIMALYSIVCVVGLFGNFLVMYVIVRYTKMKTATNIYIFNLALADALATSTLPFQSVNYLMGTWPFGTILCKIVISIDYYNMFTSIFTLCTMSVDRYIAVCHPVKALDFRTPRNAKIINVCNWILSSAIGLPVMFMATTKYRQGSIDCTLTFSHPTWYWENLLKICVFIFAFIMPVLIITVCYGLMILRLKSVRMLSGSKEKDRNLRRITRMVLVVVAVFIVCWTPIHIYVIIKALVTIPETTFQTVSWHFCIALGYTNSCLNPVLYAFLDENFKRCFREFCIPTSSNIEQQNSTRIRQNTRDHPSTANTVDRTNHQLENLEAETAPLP

[5] = target: T4, 5-hydroxytryptamine receptor 1A (Homo sapiens, UniProt P08908); format: functional, cell-based
T4 sequence (P08908 whole entry): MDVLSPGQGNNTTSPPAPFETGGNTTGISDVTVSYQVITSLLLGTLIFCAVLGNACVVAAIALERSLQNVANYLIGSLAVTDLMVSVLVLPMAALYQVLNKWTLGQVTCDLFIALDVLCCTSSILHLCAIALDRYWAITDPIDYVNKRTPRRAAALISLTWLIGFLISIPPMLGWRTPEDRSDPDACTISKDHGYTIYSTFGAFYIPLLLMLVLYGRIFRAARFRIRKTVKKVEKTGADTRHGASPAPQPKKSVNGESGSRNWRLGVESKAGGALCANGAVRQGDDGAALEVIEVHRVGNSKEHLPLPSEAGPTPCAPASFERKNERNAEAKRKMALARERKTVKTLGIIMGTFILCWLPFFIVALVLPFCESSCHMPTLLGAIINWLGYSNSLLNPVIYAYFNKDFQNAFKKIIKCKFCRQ

[6] = target: Melanocortin receptor 3 (Homo sapiens, UniProt P41968)
Melanocortin receptor 3, sequence (P41968 whole entry): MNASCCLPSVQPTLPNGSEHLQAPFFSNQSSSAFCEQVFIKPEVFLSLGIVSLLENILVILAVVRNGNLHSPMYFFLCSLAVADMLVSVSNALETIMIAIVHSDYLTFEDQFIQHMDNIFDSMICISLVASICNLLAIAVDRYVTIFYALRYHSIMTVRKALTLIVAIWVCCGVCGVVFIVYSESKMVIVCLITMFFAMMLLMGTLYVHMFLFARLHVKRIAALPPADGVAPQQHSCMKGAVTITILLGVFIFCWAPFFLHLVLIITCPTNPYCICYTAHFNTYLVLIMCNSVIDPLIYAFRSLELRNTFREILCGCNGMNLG

[7] = target: T5, Muscarinic acetylcholine receptor M2 (Homo sapiens, UniProt P08172); format: functional, cell-based
T5 sequence (P08172 whole entry): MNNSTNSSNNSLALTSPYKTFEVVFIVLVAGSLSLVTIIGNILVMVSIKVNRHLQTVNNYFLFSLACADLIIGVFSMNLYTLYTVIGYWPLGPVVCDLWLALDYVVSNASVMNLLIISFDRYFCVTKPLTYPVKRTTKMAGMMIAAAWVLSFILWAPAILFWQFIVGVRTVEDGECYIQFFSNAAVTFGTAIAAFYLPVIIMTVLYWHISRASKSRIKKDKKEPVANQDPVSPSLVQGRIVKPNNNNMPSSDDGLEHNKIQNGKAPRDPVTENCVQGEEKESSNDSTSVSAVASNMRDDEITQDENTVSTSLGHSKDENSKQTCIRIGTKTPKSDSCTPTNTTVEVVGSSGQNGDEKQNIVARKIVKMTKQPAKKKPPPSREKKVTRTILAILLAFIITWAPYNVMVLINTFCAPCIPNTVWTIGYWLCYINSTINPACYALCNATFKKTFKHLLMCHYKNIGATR

[8] = target: Growth hormone secretagogue receptor type 1 (Homo sapiens, UniProt Q92847)
Growth hormone secretagogue receptor type 1, sequence (Q92847 whole entry): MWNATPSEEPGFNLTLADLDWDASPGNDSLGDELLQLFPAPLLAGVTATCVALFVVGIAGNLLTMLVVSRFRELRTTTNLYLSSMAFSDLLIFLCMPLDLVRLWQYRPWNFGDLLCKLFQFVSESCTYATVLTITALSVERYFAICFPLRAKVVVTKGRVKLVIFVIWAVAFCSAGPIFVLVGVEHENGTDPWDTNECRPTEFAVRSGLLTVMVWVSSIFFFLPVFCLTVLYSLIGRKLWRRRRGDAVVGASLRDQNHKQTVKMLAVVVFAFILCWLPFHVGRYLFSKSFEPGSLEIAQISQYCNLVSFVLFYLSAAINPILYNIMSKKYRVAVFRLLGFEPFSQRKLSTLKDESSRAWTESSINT

[9] = target: T6, Alpha-1A adrenergic receptor (Homo sapiens, UniProt P35348); format: functional, cell-based
T6 sequence (P35348 whole entry): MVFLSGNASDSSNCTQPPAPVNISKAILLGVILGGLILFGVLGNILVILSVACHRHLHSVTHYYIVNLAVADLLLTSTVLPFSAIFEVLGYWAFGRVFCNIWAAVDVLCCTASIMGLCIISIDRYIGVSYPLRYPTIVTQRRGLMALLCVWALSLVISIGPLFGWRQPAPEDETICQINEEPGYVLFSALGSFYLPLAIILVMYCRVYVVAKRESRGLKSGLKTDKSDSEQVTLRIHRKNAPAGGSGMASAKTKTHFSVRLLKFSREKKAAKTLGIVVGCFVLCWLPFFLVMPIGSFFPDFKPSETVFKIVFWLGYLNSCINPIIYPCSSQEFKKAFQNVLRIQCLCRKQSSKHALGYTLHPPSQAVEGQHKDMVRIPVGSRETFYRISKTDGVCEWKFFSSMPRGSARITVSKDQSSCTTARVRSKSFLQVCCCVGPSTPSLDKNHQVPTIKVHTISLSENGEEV

[10] = target: Kappa-type opioid receptor (Homo sapiens, UniProt P41145)
Kappa-type opioid receptor, sequence (P41145 whole entry): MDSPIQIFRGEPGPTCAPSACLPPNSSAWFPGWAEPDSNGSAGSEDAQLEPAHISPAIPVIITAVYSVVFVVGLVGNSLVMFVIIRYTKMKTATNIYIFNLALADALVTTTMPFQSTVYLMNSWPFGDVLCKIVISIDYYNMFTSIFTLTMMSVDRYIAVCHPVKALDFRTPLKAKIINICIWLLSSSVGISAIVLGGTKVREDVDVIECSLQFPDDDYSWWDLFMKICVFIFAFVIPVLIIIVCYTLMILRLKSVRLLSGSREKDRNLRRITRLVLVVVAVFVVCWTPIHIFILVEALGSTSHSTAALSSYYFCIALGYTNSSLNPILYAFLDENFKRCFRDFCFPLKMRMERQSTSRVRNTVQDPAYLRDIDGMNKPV

[11] = target: Histamine H2 receptor (Homo sapiens, UniProt P25021); format: functional, cell-based
Histamine H2 receptor, sequence (P25021 whole entry): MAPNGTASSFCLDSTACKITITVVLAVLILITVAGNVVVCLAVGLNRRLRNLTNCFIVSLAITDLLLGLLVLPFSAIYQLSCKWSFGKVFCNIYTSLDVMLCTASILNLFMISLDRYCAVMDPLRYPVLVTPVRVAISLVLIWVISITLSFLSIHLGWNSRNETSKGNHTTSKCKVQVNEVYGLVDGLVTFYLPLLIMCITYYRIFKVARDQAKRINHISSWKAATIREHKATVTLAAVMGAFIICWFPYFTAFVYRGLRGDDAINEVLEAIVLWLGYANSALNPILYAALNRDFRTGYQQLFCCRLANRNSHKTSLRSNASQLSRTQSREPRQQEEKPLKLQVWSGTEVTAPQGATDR

[12] = target: T1, Muscarinic acetylcholine receptor M1; format: functional, cell-based
Further: assay procedure not described here.

Compound | AC50 [1] [µM] | AC50 [2] [µM] | AC50 [3] [µM] | AC50 [4] [µM] | AC50 [5] [µM] | AC50 [6] [µM] | AC50 [7] [µM] | AC50 [8] [µM] | AC50 [9] [µM] | AC50 [10] [µM] | AC50 [11] [µM] | AC50 [12] [µM]
CC(=N)N1CC[C@H](SC2=C(C(=O)O)N3C(=O)[C@H]([C@@H](C)O)[C@H]3C2)C1 | 68 | 140 | > 300 | > 300 | > 300 | > 300 | > 300 | > 300 | > 300 |  |  | 
O=C1CN2Cc3c(ccc(Cl)c3Cl)N=C2N1 [ANAGRELIDE] | > 10 | > 30 | > 30 | > 30 | > 30 | > 30 | > 10 | > 30 | > 30 | > 10 | > 10 | 
[H]/N=C(\N/C(=N/[H])NCCCCCCNC(=N)NC(=N)Nc1ccc(Cl)cc1)Nc1ccc(Cl)cc1 [CHLORHEXIDINE] | > 10 | 4.1 | > 10 | 13 | > 30 | 0.49 |  | 1 | 0.6 | 3.99 | > 10 | 
CNCC[C@H](Oc1cccc2ccccc12)c1cccs1 [DULOXETINE] | > 10 | > 30 | > 30 | 12 | 8.9 | 22.7 | > 10 | 14.7 |  |  | > 10 | 
C[C@H]1Oc2cc(cnc2N)-c2c(nn(C)c2C#N)CN(C)C(=O)c2ccc(F)cc21 [LORLATINIB] | > 30 | 1.2 | > 30 | > 30 | > 30 | > 30 | > 30 | > 30 | > 30 |  |  | 
Cc1cnc(NC(=O)C2=C(O)c3ccccc3S(=O)(=O)N2C)s1 [MELOXICAM] |  | > 30 | > 30 | > 10 | > 10 | > 30 | > 10 | > 30 | > 30 | > 10 | > 10 | 
CC(=O)/N=c1/sc(S(N)(=O)=O)nn1C [METHAZOLAMIDE] | > 10 | > 10 | > 10 | > 30 | > 10 | > 10 | > 10 | > 10 |  | > 10 | > 10 | > 30
CNC[C@H](O)c1cccc(O)c1 [PHENYLEPHRINE] | > 10 | > 30 | > 30 | > 10 | > 30 | > 30 | > 10 | > 30 |  | > 10 | > 10 | > 30
O=C1NC(=O)C(c2ccccc2)(c2ccccc2)N1 [PHENYTOIN] |  | > 30 | > 30 | > 30 | > 30 | > 30 | > 30 | > 30 | > 30 | > 10 | > 10 | 
CC(C)C[C@H](CN)CC(=O)O [PREGABALIN] | > 30 | > 30 | > 30 | > 30 | > 30 | > 30 | > 30 | > 30 |  | > 30 | > 10 | 
CCOc1cc(CC(=O)N[C@@H](CC(C)C)c2ccccc2N2CCCCC2)ccc1C(=O)O [REPAGLINIDE] | > 30 | 22 | > 30 | > 30 | > 30 | > 30 | > 30 | > 30 | > 30 |  |  | 
NC(=O)c1ncn([C@@H]2O[C@H](CO)[C@@H](O)[C@H]2O)n1 [RIBAVIRIN] |  | > 10 | > 10 | > 30 | > 10 | > 10 | > 10 | > 10 | > 30 | > 10 | > 10 | 
CCCN(CCC)CCc1cccc2c1CC(=O)N2 [ROPINIROLE] | > 30 | > 30 | > 30 | 9.67 | > 30 | > 30 | 23 | > 30 | > 30 |  | > 10 | 
CCCN(CCc1cccs1)[C@H]1CCc2c(O)cccc2C1 [ROTIGOTINE] | 25 | 24 | > 30 | 8.6 | > 10 | > 30 | > 10 | 29 |  |  |  | 
CC(C)N(CCCCOCC(=O)NS(C)(=O)=O)c1cnc(-c2ccccc2)c(-c2ccccc2)n1 [SELEXIPAG] | > 30 | 7.89 |  | > 30 | > 30 | > 30 | > 30 | > 30 | 7.2 | 29 | > 30 | 
CC(=O)S[C@@H]1CC2=CC(=O)CC[C@]2(C)[C@H]2CC[C@@]3(C)[C@@H](CC[C@@]34CCC(=O)O4)[C@H]12 [SPIRONOLACTONE] |  | > 30 | > 30 | > 30 | > 30 | > 30 | 26 | > 30 | > 30 | 14.8 | > 10 | 
CCCCNc1ccc(C(=O)OCCN(C)C)cc1 [TETRACAINE] |  | > 30 | > 30 | > 10 | > 10 | > 30 | > 10 | > 30 | > 30 | > 10 | > 10 | 
